# Test results published in patent publication US5091539A, “Azolyl cycloalkanol derivatives and agricultural fungicides” (Shionogi & Co., Ltd., priority 1984, dated 1992).
# Key:
# Puccinia coronata = assay: Control test of crown rust of oat; type: in vivo
# Method: (1) Young oats (Cultivar: Pc38) grown in pots in a greenhouse were (i) sprayed with 10 ml each of solution of the test compounds at a prescribed concentration and after air-drying, they were inoculated with 15 mg of uredospores of Puccinia coronata per 20 pots (protective spraying) or (ii) sprayed with the test solution 3 days after inoculation of uredospores. After each plant was kept at 20°-25° C. in a greenhouse for 2 weeks, number of uredia was counted on the first leaf.
# Sclerotinia sclerotiorum = assay: Control test to Sclerotinia rot of cucumber; type: in vivo
# Source text: (1) This test was practised in the same manner as in the above test, control test of Botrytis rot (gray mold) of cucumber, except for using the mycelium of Sclerotinia sclerotiorum as inoculm. The same as in test 2.
# Sphaerotheca fuliginea [1] = assay: Control test to powdery mildew of cucumber (foliar and soil treatment); type: in vivo; details: index 0-10
# Sphaerotheca fuliginea [2] = assay: Control test to powdery mildew of cucumber by vapor (filter paper disks); type: in vivo
# Method: (1) The first leaves of young cucumber (Cultivar: Matsukaze) planted in pot of 9 cm in diameter were inoculated with spore suspension of Sphaerotheca fuliginea. After the plants were kept in a greenhouse for 2 days, thin cover plates, 15 mm in diameter, were put on the first leaves. Filter paper disks soaked with 80 μl of test solution at a concentration of 31.3, 7.8, 2.0 or 0.5 ppm were put on the plates for 3 days. Disease degrees were observed 14 days after the inoculation.
# It is evaluated as + when an inhibition zone was observed around the plate, as ± when the inhibition zone has nearly the same diameter (8 mm) as that of plate or as - when there is no inhibition zone.
# (§1) (1) Test methods and evaluation are the same as those in Tests 2, 4 and 6.
# Botrytis cinerea = assay: Control test of Botrytis rot (gray mold) of cucumber; type: in vivo
# Cochiobolus sativus = assay: Anti-fungal activity in vitro; type: cell-based; details: 48 h; GY medium, 28° C., 2 days
# Method: (§2) (1) Each test compound was diluted by two-fold dilution with GY medium (2% glucose and 0.4% yeast extract) containing 0.01% Tween 80 (trademark). Every diluted solution was inoculated with spore suspension (10^5-5 spores/ml) of Alternaria kikuchiana or a hyphae disk with agar (4 mm in diameter) of other fungi and incubated at 28° C. for 2 days.
# Corticium rolfsii = assay: Anti-fungal activity in vitro; type: cell-based; details: Agroathelia rolfsii, 48 h; GY medium, 28° C., 2 days
# Method: as §2
# Monilinia fructicola = assay: Anti-fungal activity in vitro; type: cell-based; details: 48 h, GY medium, 28° C., 2 days
# Method: as §2
# Ustilago nuda = assay: Anti-fungal activity in vitro; type: cell-based; details: 48 h, GY medium, 28° C., 2 days
# Method: as §2
# Alternaria kikuchiana = assay: Anti-fungal activity in vitro; type: cell-based; details: 48 h, GY medium, 28° C., 2 days, spore suspension
# Method: as §2
# Diaporthe citri = assay: Anti-fungal activity in vitro; type: cell-based; details: 48 h, GY medium, 28° C., 2 days
# Method: as §2
# Pyrenophora graminea = assay: Anti-fungal activity in vitro; type: cell-based; details: 48 h, GY medium, 28° C., 2 days
# Method: as §2
# Cladosporium herbarum = assay: Anti-fungal activity in vitro; type: cell-based; details: 48 h, GY medium, 28° C., 2 days
# Method: as §2
# [3] = test system: powdery mildew of cucumber and Borytis rot (gray mold) of cucumber; assay: Comparative test of cis- and trans-isomers; type: in vivo; details: cis isomer vs trans isomer, about
# Source text: Each cis- and trans-isomers of 1-(4-chlorophenyl)-2-(1,2,4-triazol-1-yl)cyclohexanol (Compound 22 and the trans-isomer)) and 1-(4-fluorophenyl)-2-(1,2,4-triazol-1-yl)cyclohexanol (Compound 28 and the trans-isomer) are subjected to control test to powdery mildew of cucumber and to Borytis rot (gray mold) of cucumber.
# as §1
# Rhizoctonia solani = assay: Control test to damping-off of cucumber (Rhizoctonia solani); type: in vivo; details: 31.3 ppm, soil drench, 14 days
# Method: (1) The fungus causing damping-off of cucumber seedlings, Rhizoctonia solani or Fusarium oxysporum was cultured on a wheat bran medium at 28° C. for 5 days, which was mixed with sterilized soil and cultured for 2 days to prepare the inoculum. Sterilized soil (150 g) was put into a pot of 9 cm in diameter. The surface of the spot was covered with the above inoculum. […] Twenty cucumber seeds (Cultivar: Matsukaze) were sown 2 days after. The pots were kept at 30°±2° C. for 14 days. The infection was observed 14 days after and disease degree and percent disease degree were obtained by setting an evaluation index for each disease sympton.
# (2) Evaluation [formula] wherein a: number of seeds without germination b: number of seedlings showing damping-off c: number of wilted seedlings d: number of seedlings being a little brownish in cotyledons or at the bottom of the stem e: number of uninfected seedlings [formula] wherein a: number of seeds without germination or seedlings with damping-off b: number of wilted seedlings c: number of seedlings being a little brownish in cotyledons or at the bottom of the stem d: number of uninfected seedlings [formula]
structure (smiles),measurement,setting,value
"O[C@@]1(c2ccc(Cl)cc2)CCCC[C@H]1n1cncn1 (relative stereo) [Compound 22, cis-1-(4-chlorophenyl)-2-(1,2,4-triazol-1-yl)cyclohexanol]","Percent Disease Control, Curative Spraying",Puccinia coronata; 12.5 ppm,64%
same,"Percent Disease Control, Protective Spraying",Puccinia coronata; 12.5 ppm,100%
same,"Percent Disease Control, Curative Spraying",Puccinia coronata; 25 ppm,88%
same,"Percent Disease Control, Protective Spraying",Puccinia coronata; 25 ppm,100%
same,"Percent Disease Control, Curative Spraying",Puccinia coronata; 50 ppm,100%
same,"Percent Disease Control, Protective Spraying",Puccinia coronata; 50 ppm,100%
same,"Percent Disease Control, Curative Spraying",Sclerotinia sclerotiorum; 31.3 ppm,93%
same,"Percent Disease Control, Protective Spraying",Sclerotinia sclerotiorum; 31.3 ppm,67%
same,"Percent Disease Control, Curative Spraying",Sclerotinia sclerotiorum; 125 ppm,95%
same,"Percent Disease Control, Protective Spraying",Sclerotinia sclerotiorum; 125 ppm,100%
same,"Powdery mildew, Foliar Treatment, Curative Effect","Sphaerotheca fuliginea [1]; Table 9, 0.03 ppm",9
same,"Powdery mildew, Foliar Treatment, Protective Effect","Sphaerotheca fuliginea [1]; Table 9, 0.03 ppm",0
same,"Powdery mildew, Foliar Treatment, Curative Effect","Sphaerotheca fuliginea [1]; Table 9, 0.12 ppm",10
same,"Powdery mildew, Foliar Treatment, Protective Effect","Sphaerotheca fuliginea [1]; Table 9, 0.12 ppm",9
same,"Powdery mildew, Foliar Treatment, Curative Effect","Sphaerotheca fuliginea [1]; Table 9, 0.5 ppm",10
same,"Powdery mildew, Foliar Treatment, Protective Effect","Sphaerotheca fuliginea [1]; Table 9, 0.5 ppm",10
same,"Powdery mildew, Soil Treatment, Protective Effect","Sphaerotheca fuliginea [1]; Table 9, 0.5 ppm",0
same,"Powdery mildew, Foliar Treatment, Curative Effect","Sphaerotheca fuliginea [1]; Table 9, 2.0 ppm",10
same,"Powdery mildew, Foliar Treatment, Protective Effect","Sphaerotheca fuliginea [1]; Table 9, 2.0 ppm",10
same,"Powdery mildew, Soil Treatment, Protective Effect","Sphaerotheca fuliginea [1]; Table 9, 2.0 ppm",10
same,"Powdery mildew, Soil Treatment, Protective Effect","Sphaerotheca fuliginea [1]; Table 9, 7.8 ppm",10
same,"Powdery mildew, Soil Treatment, Protective Effect","Sphaerotheca fuliginea [1]; Table 9, 31.3 ppm",10
same,"Foliar Treatment, Curative Effect","Sphaerotheca fuliginea [1]; second Table 4, 0.5 ppm",10
same,"Foliar Treatment, Protective Effect","Sphaerotheca fuliginea [1]; second Table 4, 0.5 ppm",5 (Disease sign is observed on the leaf in about 30%.)
same,"Soil Treatment, Protective Effect","Sphaerotheca fuliginea [1]; second Table 4, 0.5 ppm",0
same,"Foliar Treatment, Curative Effect","Sphaerotheca fuliginea [1]; second Table 4, 2.0 ppm",10
same,"Foliar Treatment, Protective Effect","Sphaerotheca fuliginea [1]; second Table 4, 2.0 ppm",10
same,"Soil Treatment, Protective Effect","Sphaerotheca fuliginea [1]; second Table 4, 2.0 ppm",5 (Disease sign is observed on the leaf in about 30%.)
same,"Foliar Treatment, Curative Effect","Sphaerotheca fuliginea [1]; second Table 4, 7.8 ppm",10
same,"Foliar Treatment, Protective Effect","Sphaerotheca fuliginea [1]; second Table 4, 7.8 ppm",10
same,"Soil Treatment, Protective Effect","Sphaerotheca fuliginea [1]; second Table 4, 7.8 ppm",10
same,"Foliar Treatment, Curative Effect","Sphaerotheca fuliginea [1]; second Table 4, 31.3 ppm",10
same,"Foliar Treatment, Protective Effect","Sphaerotheca fuliginea [1]; second Table 4, 31.3 ppm",10
same,"Soil Treatment, Protective Effect","Sphaerotheca fuliginea [1]; second Table 4, 31.3 ppm",10
same,Protective Effect by Vapor,"Sphaerotheca fuliginea [2]; Table 6, 0.5 ppm",-
same,Protective Effect by Vapor,"Sphaerotheca fuliginea [2]; Table 6, 2.0 ppm",-
same,Protective Effect by Vapor,"Sphaerotheca fuliginea [2]; Table 6, 7.8 ppm",+
same,Protective Effect by Vapor,"Sphaerotheca fuliginea [2]; Table 6, 31.3 ppm",+
same,"Powdery mildew, Vapor Effect","Sphaerotheca fuliginea [2]; Table 9, 2.0 ppm",-
same,"Powdery mildew, Vapor Effect","Sphaerotheca fuliginea [2]; Table 9, 7.8 ppm",±
same,"Powdery mildew, Vapor Effect","Sphaerotheca fuliginea [2]; Table 9, 31.3 ppm",+
same,"Percent Disease Control, Curative Spraying","Botrytis cinerea; Table 2, 31.3 ppm",46%
same,"Percent Disease Control, Protective Spraying","Botrytis cinerea; Table 2, 31.3 ppm",100%
same,"Percent Disease Control, Curative Spraying","Botrytis cinerea; Table 2, 125 ppm",89%
same,"Percent Disease Control, Protective Spraying","Botrytis cinerea; Table 2, 125 ppm",100%
same,"Gray Mold, Percent Disease Control, Curative Spraying","Botrytis cinerea; Table 9, 7.8 ppm",20%
same,"Gray Mold, Percent Disease Control, Protective Spraying","Botrytis cinerea; Table 9, 7.8 ppm",35%
same,"Gray Mold, Percent Disease Control, Curative Spraying","Botrytis cinerea; Table 9, 31.3 ppm",88%
same,"Gray Mold, Percent Disease Control, Protective Spraying","Botrytis cinerea; Table 9, 31.3 ppm",62%
same,"Gray Mold, Percent Disease Control, Curative Spraying","Botrytis cinerea; Table 9, 125 ppm",82%
same,"Gray Mold, Percent Disease Control, Protective Spraying","Botrytis cinerea; Table 9, 125 ppm",78%
same,MIC,Cochiobolus sativus,6.25 µg/mL
same,MIC,Corticium rolfsii,> 50 µg/mL
same,MIC,Monilinia fructicola,0.78 µg/mL
same,MIC,Ustilago nuda,12.5 µg/mL
same,MIC,Alternaria kikuchiana,50 µg/mL
same,MIC,Diaporthe citri,12.5 µg/mL
same,MIC,Pyrenophora graminea,12.5 µg/mL
same,MIC,Cladosporium herbarum,6.25 µg/mL
same,times more effective than the corresponding trans isomer,[3],4-16 times
"O[C@@]1(c2ccc(F)cc2)CCCC[C@H]1n1cncn1 (relative stereo) [Compound 28, 1-(4-fluorophenyl)-2-(1,2,4-triazol-1-yl)cyclohexanol]",Disease Degree,Rhizoctonia solani,8
same,Percent Disease Control,Rhizoctonia solani,92%
same,"Percent Disease Control, Curative Spraying",Sclerotinia sclerotiorum; 31.3 ppm,77%
same,"Percent Disease Control, Protective Spraying",Sclerotinia sclerotiorum; 31.3 ppm,56%
same,"Percent Disease Control, Curative Spraying",Sclerotinia sclerotiorum; 125 ppm,97%
same,"Percent Disease Control, Protective Spraying",Sclerotinia sclerotiorum; 125 ppm,80%
same,"Powdery mildew, Foliar Treatment, Curative Effect","Sphaerotheca fuliginea [1]; Table 9, 0.03 ppm",0
same,"Powdery mildew, Foliar Treatment, Protective Effect","Sphaerotheca fuliginea [1]; Table 9, 0.03 ppm",0
same,"Powdery mildew, Foliar Treatment, Curative Effect","Sphaerotheca fuliginea [1]; Table 9, 0.12 ppm",7 (Disease sign is observed on the leaf in about 20%.)
same,"Powdery mildew, Foliar Treatment, Protective Effect","Sphaerotheca fuliginea [1]; Table 9, 0.12 ppm",0
same,"Powdery mildew, Foliar Treatment, Curative Effect","Sphaerotheca fuliginea [1]; Table 9, 0.5 ppm",10
same,"Powdery mildew, Foliar Treatment, Protective Effect","Sphaerotheca fuliginea [1]; Table 9, 0.5 ppm",5 (Disease sign is observed on the leaf in about 30%.)
same,"Powdery mildew, Soil Treatment, Protective Effect","Sphaerotheca fuliginea [1]; Table 9, 0.5 ppm",0
same,"Powdery mildew, Foliar Treatment, Curative Effect","Sphaerotheca fuliginea [1]; Table 9, 2.0 ppm",10
same,"Powdery mildew, Foliar Treatment, Protective Effect","Sphaerotheca fuliginea [1]; Table 9, 2.0 ppm",10
same,"Powdery mildew, Soil Treatment, Protective Effect","Sphaerotheca fuliginea [1]; Table 9, 2.0 ppm",9
same,"Powdery mildew, Soil Treatment, Protective Effect","Sphaerotheca fuliginea [1]; Table 9, 7.8 ppm",10
same,"Powdery mildew, Soil Treatment, Protective Effect","Sphaerotheca fuliginea [1]; Table 9, 31.3 ppm",10
same,"Foliar Treatment, Curative Effect","Sphaerotheca fuliginea [1]; second Table 4, 0.5 ppm",5 (Disease sign is observed on the leaf in about 30%.)
same,"Foliar Treatment, Protective Effect","Sphaerotheca fuliginea [1]; second Table 4, 0.5 ppm",0
same,"Soil Treatment, Protective Effect","Sphaerotheca fuliginea [1]; second Table 4, 0.5 ppm",0
same,"Foliar Treatment, Curative Effect","Sphaerotheca fuliginea [1]; second Table 4, 2.0 ppm",9
same,"Foliar Treatment, Protective Effect","Sphaerotheca fuliginea [1]; second Table 4, 2.0 ppm",5 (Disease sign is observed on the leaf in about 30%.)
same,"Soil Treatment, Protective Effect","Sphaerotheca fuliginea [1]; second Table 4, 2.0 ppm",5 (Disease sign is observed on the leaf in about 30%.)
same,"Foliar Treatment, Curative Effect","Sphaerotheca fuliginea [1]; second Table 4, 7.8 ppm",10
same,"Foliar Treatment, Protective Effect","Sphaerotheca fuliginea [1]; second Table 4, 7.8 ppm",10
same,"Soil Treatment, Protective Effect","Sphaerotheca fuliginea [1]; second Table 4, 7.8 ppm",10
same,"Foliar Treatment, Curative Effect","Sphaerotheca fuliginea [1]; second Table 4, 31.3 ppm",10
same,"Foliar Treatment, Protective Effect","Sphaerotheca fuliginea [1]; second Table 4, 31.3 ppm",10
same,"Soil Treatment, Protective Effect","Sphaerotheca fuliginea [1]; second Table 4, 31.3 ppm",10
same,"Powdery mildew, Vapor Effect","Sphaerotheca fuliginea [2]; Table 9, 2.0 ppm",-
same,"Powdery mildew, Vapor Effect","Sphaerotheca fuliginea [2]; Table 9, 7.8 ppm",±
same,"Powdery mildew, Vapor Effect","Sphaerotheca fuliginea [2]; Table 9, 31.3 ppm",+
same,"Percent Disease Control, Curative Spraying","Botrytis cinerea; Table 2, 31.3 ppm",48%
same,"Percent Disease Control, Protective Spraying","Botrytis cinerea; Table 2, 31.3 ppm",40%
same,"Percent Disease Control, Curative Spraying","Botrytis cinerea; Table 2, 125 ppm",79%
same,"Percent Disease Control, Protective Spraying","Botrytis cinerea; Table 2, 125 ppm",100%
same,"Gray Mold, Percent Disease Control, Curative Spraying","Botrytis cinerea; Table 9, 7.8 ppm",30%
same,"Gray Mold, Percent Disease Control, Protective Spraying","Botrytis cinerea; Table 9, 7.8 ppm",17%
same,"Gray Mold, Percent Disease Control, Curative Spraying","Botrytis cinerea; Table 9, 31.3 ppm",92%
same,"Gray Mold, Percent Disease Control, Protective Spraying","Botrytis cinerea; Table 9, 31.3 ppm",70%
same,"Gray Mold, Percent Disease Control, Curative Spraying","Botrytis cinerea; Table 9, 125 ppm",98%
same,"Gray Mold, Percent Disease Control, Protective Spraying","Botrytis cinerea; Table 9, 125 ppm",80%
same,times more effective than the corresponding trans isomer,[3],4-16 times
